According to patent US20250003877A1, “Silyl Bridged Dyes” (priority 2021, published 2025):
Read-outs that look alike come from different tables or passages of the source.

| SMILES | Brightness (ϕ × ε) (EtOH) | fluorescence and scatter (EtOH) | ε (M^−1 cm^−1) (EtOH) | ϕ (quantum yield) (EtOH) | Em (nm) (PBS) | Ex (nm) (PBS) | ε (M^−1 cm^−1) (PBS) | Rayleigh scatter (PBS, 1 μM concentration) | ϕ (quantum yield) (PBS, pH 7.4) | Brightness (ϕ × ε) (PBS) | brighter than dimethylsilyl counterpart (vs 001 (for 002, 009) or vs 016 (for 017), PBS) [%] |
| --- | --- | --- | --- | --- | --- | --- | --- | --- | --- | --- | --- |
| CCCCCCCC[Si]1(CCCCCCCC)C2=CC(=[N+](C)C)C=CC2=C(c2ccccc2C)c2ccc(N(C)C)cc21 [Compound 011, N-(7-(Dimethylamino)-5,5-dioctyl-10-(o-tolyl)dibenzo[b,e]silin-3(5H)-ylidene)-N-methylmethanaminium] | 89,091 | bright fluorescence and no scatter peak | 156,300 M^−1 cm^−1 | 0.57 | 666 | 651 | low extinction coefficient | pronounced Rayleigh scatter peak | 0.18 | – | – |
| Cc1ccccc1C1=c2cc3c(cc2[Si](c2ccccc2)(c2ccccc2)c2cc4c(cc21)CCN4C)=[N+](C)CC3 [Compound 022, 1,9-Dimethyl-11,11-diphenyl-5-(o-tolyl)-2,3,7,8,9,11-hexahydrosilino[3,2-f:5,6-f′]diindol-1-ium] | – | – | – | – | 737 | 710 | 117,000 M^−1 cm^−1 | – | 0.11 | 12,870 | – |
| C=C[Si]1(C=C)c2cc3c(cc2C(c2ccccc2C)=c2cc4c(cc21)=[N+](C)CC4)CCN3C [Compound 021, 1,9-Dimethyl-5-(o-tolyl)-11,11-divinyl-2,3,7,8,9,11-hexahydrosilino[3,2-f:5,6-f]diindol-1-ium] | – | – | – | – | 728 | 702 | 136,100 M^−1 cm^−1 | – | 0.13 | 17,693 | – |
| Cc1ccccc1C1=C2C=CC(=[N+](C)C)C=C2[Si](C)(CCC(F)(F)F)c2cc(N(C)C)ccc21 (stereo not shown) [Compound 010, N-(7-(Dimethylamino)-5-methyl-10-(o-tolyl)-5-(3,3,3-trifluoropropyl)dibenzo[b,e]silin-3(5H)-ylidene)-N-methylmethanaminium] | – | – | – | – | 666 | 650 | 112,900 M^−1 cm^−1 | – | 0.35 | 39,854 | – |
| C=C[Si]1(c2ccccc2)C2=CC(=[N+](C)C)C=CC2=C(c2ccccc2C)c2ccc(N(C)C)cc21 (stereo not shown) [Compound 005, N-(7-(Dimethylamino)-5-phenyl-10-(o-tolyl)-5-vinyldibenzo[b,e]silin-3(5H)-ylidene)-N-methylmethanaminium] | – | – | – | – | 676 | 658 | 150,700 M^−1 cm^−1 | – | 0.36 | 53,499 | – |
| Cc1ccccc1C1=C2C=CC(=[N+]3CCC3)C=C2[Si](C)(C)c2cc(N3CCC3)ccc21 [Compound 024, 1-(7-(Azetidin-l-yl)-5,5-dimethyl-10-(o-tolyl)dibenzo[b,e]silin-3(5H)-ylidene)azetidin-1-ium, reference compound] | – | – | – | – | 663 | 649 | 118,000 M^−1 cm^−1 | – | 0.47 | 55,460 | – |
| Cc1ccccc1C1=C2C=CC(=[N+](C)C)C=C2[Si](C)(CCCCl)c2cc(N(C)C)ccc21 (stereo not shown) [Compound 009, N-(5-(3-Chloropropyl)-7-(dimethylamino)-5-methyl-10-(o-tolyl)dibenzo[b,e]silin-3(5H)-ylidene)-N-methylmethanaminium] | – | – | – | – | 665 | 650 | 180,600 M^−1 cm^−1 | – | 0.36 | 64,113 | 50 |
